In the assay the target is RIPK1 (recombinant GST-RIPK1 kinase domain, residues 1-327) (Homo sapiens (Human), UniProt Q13546). Description: RIPK1-ADP-Glo Enzymatic Assay. It is filed as biochemical. To be noted: ADP-Glo; 25 nM GST-RIPK1, 300 μM ATP; assay lower limit ~25 nM; read-out: RIPK1 V0 Ec50. The method in brief: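 Luminescent ADP-Glo readout of ATP-to-ADP conversion. Conditions: 25 nM enzyme, 300 μM ATP, 3 μM dephospho-MBP, pH 7.3 HEPES buffer with 20 mM MgCl2; 30 min compound pre-incubation, 150 min reaction. EC50 via four-parameter sigmoidal regression; assay floor ~25 nM.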
Chain of RIPK1 (recombinant GST-RIPK1 kinase domain, residues 1-327) (Q13546 1-327): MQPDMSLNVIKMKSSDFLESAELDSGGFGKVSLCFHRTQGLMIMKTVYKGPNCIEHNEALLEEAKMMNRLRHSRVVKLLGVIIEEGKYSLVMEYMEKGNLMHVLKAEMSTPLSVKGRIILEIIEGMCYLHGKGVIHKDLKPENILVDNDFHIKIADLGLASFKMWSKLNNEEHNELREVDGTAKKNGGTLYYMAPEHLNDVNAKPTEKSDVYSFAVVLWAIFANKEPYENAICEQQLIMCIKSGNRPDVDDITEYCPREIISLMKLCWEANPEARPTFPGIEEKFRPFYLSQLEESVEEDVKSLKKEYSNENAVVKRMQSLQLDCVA

Where a name gives a salt, the structure may show the parent alone.

In the case of `Cc1cc(F)c(C(=O)N2CCC3(CC2)O[C@@H]2CC[C@@H](c4ccccc4)N2C3=O)cc1F` [Example 5.12, (5′S,7a′R)-1-(2,5-difluoro-4-methylbenzene-1-car-bonyl)-5′-phenyltetra-hydro-3′H-spiro[piperi-dine-4,2′-pyrrolo[2,1-b] [1,3]oxazol]-3′-one], the EC50 was under 25 nM.

Take `COc1ccc(N2CCC3(CC2)O[C@@H]2CC[C@@H](c4cc(F)cc(F)c4)N2C3=O)n2ncnc12` [Example 19.3, (5′S,7a′R)-5′-(3,5-difluorophenyl)-1-(8-methoxy-[1,2,4]triazolo[1,5-a]pyridin-5-yl)tetrahydro-3′H-spiro[piperidine-4,2′ pyrrolo[2,1-b]oxazol]-3′-one, TFA salt]: the EC50 was under 25 nM.

For the compound `CC1CC2(CCN1C(=O)c1ncccc1F)O[C@@H]1CC[C@@H](c3cccc(F)c3)N1C2=O` (stereo partly drawn) [Example 6.162, (4R,5′S,7a′R)-5′-(3-fluorophenyl)-1-(3-fluoropyridine-2-carbonyl)-2-methyl-tetrahydro-3′H-spiro [piperidine-4,2′-pyrrolo[2,1-b][1,3]oxazol]-3′-one], the EC50 came out at 38 nM.

`CSc1cnc(N2CCC3(CC2)O[C@@H]2CC[C@@H](c4cc(F)cc(F)c4)N2C3=O)nc1` [Example 4.55, (5′S,7a′R)-5′-(3,5-difluorophenyl)-1-[5-(methylsulfanyl)pyrimidin-2-yl]tetrahydro-3′H-spiro[piperidine-4,2′-pyrrolo[2,1-b] [1,3]oxazol]-3′-one]: the EC50 came to 246 nM.

`Cn1ccc(C(=O)N2CCC3(CC2)O[C@@H]2CC[C@@H](c4cc(F)cc(F)c4)N2C3=O)n1` [Example 5.39, (5′S,7a′R)-5′-(3,5-difluoro-phenyl)-1-(1-methyl-1H-pyrazole-3-carbonyl)tetra-hydro-3′H-spiro[piperi-dine-4,2′-pyrrolo[2,1-b]oxazol]-3′-one]: the EC50 turned out to be 172 nM.

Turning to `N#Cc1cc(C(=O)N2CCC3(CC2)O[C@@H]2CC[C@@H](c4ccccc4)N2C3=O)ccc1F` [Example 6.138, 2-fluoro-5-[(5′S,7a′R)-3′-oxo-5′-phenyl-tetrahydro-1H,3′H-spiro[piperidine-4,2′-pyrrolo[2,1-b][1,3]-oxazole]-1-carbonyl]-benzonitrile], the EC50 is under 25 nM.

Turning to `O=C(c1ccn2ncnc2n1)N1CCC2(CC1)O[C@@H]1CC[C@@H](c3cc(F)cc(F)c3)N1C2=O` [Example 6.87, (5′S,7a′R)-5′-(3,5-difluorophenyl)-1-([1,2,4]triazolo[1,5-a]pyrimidine-5-carbonyl)tetrahydro-3′H-spiro[piperidine-4,2′-pyrrolo[2,1-b] [1,3]oxazol]-3′-one], the EC50 was found to be 43.8 nM.

In the case of `Cc1ocnc1C(=O)N1CCC2(CC1)O[C@@H]1CC[C@@H](c3cccc(F)c3)N1C2=O` [Example 6.128, (5′S,7a′R)-5′-(3-fluorophenyl)-1-(5-methyl-1,3-oxazole-4-carbonyl)tetrahydro-3′H-spiro[piperidine-4,2′-pyrrolo[2,1-b] [1,3]oxazol]-3′-one], the EC50 was determined as 42.7 nM.

Turning to `Cc1nocc1C(=O)N1CCC2(CC1)O[C@@H]1CC[C@@H](c3cc(F)cc(F)c3)N1C2=O` [Example 5.33, (5′S,7a′R)-5′-(3,5-difluoro-phenyl)-1-(3-methylisoxa-zole-4-carbonyl)tetrahydro-3′H-spiro[piperidine-4,2′-pyrrolo[2,1-b]oxazol]-3′-one], the EC50 is 189 nM.

Regarding `CC1CN(c2cccc3ncnn23)CCC12O[C@@H]1CC[C@@H](c3cc(F)cc(F)c3)N1C2=O` (stereo partly drawn) [Example 4.265, (5′S,7a′R)-5′-(3,5-difluorophenyl)-3-methyl-1-([1,2,4]triazolo[1,5-a]pyridin-5-yl)tetrahydro-3′H-spiro[piperidine-4,2′-pyrrolo[2,1-b] [1,3]oxazol]-3′-one], the EC50 came out at 28.4 nM.

In the case of `O=C1N2[C@@H](CC[C@H]2c2ccccc2)OC12CCN(c1cc(-n3ccnc3)ccn1)CC2` [Example 11.21, (5′S,7a′R)-1-[4-(1H-imidazol-1-yl)pyridin-2-yl]-5′-phenyltetrahydro-3′H-spiro[piperidine-4,2′-pyrrolo[2,1-b][1,3]oxazol]-3′-one], the EC50 stood at 229 nM.

In the case of `O=C(c1cnnc2ccccc12)N1CCC2(CC1)O[C@@H]1CC[C@@H](c3cc(F)cc(F)c3)N1C2=O` [Example 6.58, (5′S,7a′R)-1-(cinn-oline-4-carbonyl)-5′-(3,5-difluorophenyl) tetrahydro-3′H-spiro [piperidine-4,2′-pyrrolo[2,1-b][1,3]-oxazol]-3'-one], the EC50 was 263 nM.

Regarding `Cc1nc(Cl)c(C)c(N2CCC3(CC2)O[C@@H]2CC[C@@H](c4ccccc4)N2C3=O)n1` [Example 4.22, (5′S,7a′R)-1-(6-chloro-2,5-dimethylpyrimidin-4-yl)-5′-phenyltetrahydro-3′H-spiro[piperidine-4,2′-pyrrolo[2,1-b] [1,3]oxazol]-3′-one], the EC50 came out at 26.9 nM.

In the case of `O=C1N2[C@@H](CC[C@H]2c2ccccc2)OC12CCN(c1cc(-c3ccco3)ccn1)CC2` [Example 4.169, (5′S,7a′R)-1-[4-(furan-2-yl)pyridin-2-yl]-5′-phenyltetrahydro-3′H-spiro[piperidine-4,2′-pyrrolo[2,1-b] [1,3]oxazol]-3′-one], the EC50 came to 26.4 nM.

On to `O=C1N2[C@@H](CC[C@H]2c2ccccc2)OC12CCN(c1ncc(Br)c3ncnn13)CC2` [Example 4.239, (5′S,7a′R)-1-(8-bromo [1,2,4]triazolo[1,5-c]pyrimidin-5-yl)-5′-phenyltetrahydro-3′H-spiro[piperidine-4,2′-pyrrolo[2,1-b] [1,3]oxazol]-3′-one], for which the EC50 was under 25 nM.

Consider `N#Cc1cc(N2CCC3(CC2)N=C2CC[C@@H](c4cc(F)cc(F)c4)N2C3=O)ncn1` [Example 4.80, (S)-[5′-(3,5-difluorophenyl)-3′-oxo-6′,7′-dihydro-1H,3′H,5′H-spiro[piperidine-4,2′-pyrrolo[1,2-a]imidazol]-1-yl]pyrimidine-4-carbonitrile], for which the EC50 came out at 494 nM.

For `O=C1N2[C@@H](CC[C@H]2c2ccccc2)OC12CCN(c1ncnc3ccnn13)CC2` [Example 4.93, (5′S,7a′R)-5′-phenyl-1-(pyrazolo[1,5-a] [1,3,5]triazin-4-yl)tetrahydro-3′H-spiro[piperidine-4,2′-pyrrolo[2,1-b]oxazol]-3′-one, TFA salt], the EC50 was under 25 nM.

Regarding `N#CC1(c2cccc(C(=O)N3CCC4(CC3)O[C@@H]3CC[C@@H](c5cc(F)cc(F)c5)N3C4=O)c2)CC1` [Example 6.71, 1-{3-[(5′S,7a′R)-5′-(3,5-difluorophenyl)-3′-oxotetrahydro-1H,3′H-spiro[piperi-dine-4,2′-pyrrolo-[2,1-b][1,3]oxazole]-1-carbonyl]phenyl} cyclopropane-1-car-bonitrile], the EC50 was under 25 nM.

Turning to `CC1CN(c2cccc3ncnn23)CCC12O[C@@H]1CC[C@@H](c3cc(F)cc(F)c3)N1C2=O` (stereo partly drawn) [Example 4.266, (5′S,7a′R)-5′-(3,5-difluorophenyl)-3-methyl-1-([1,2,4]triazolo[1,5-a]pyridin-5-yl)tetrahydro-3′H-spiro[piperidine-4,2′-pyrrolo[2,1-b] [1,3]oxazol]-3′-one], the EC50 was under 25 nM.

With `COc1cc(C(=O)N2CCC3(CC2)O[C@@H]2CC[C@@H](c4cccc(F)c4)N2C3=O)ccc1F` [Example 6.120, (5′S,7a′R)-1-(4-fluoro-3-methoxybenzene-1-carbonyl)-5′-(3-fluoro-phenyl)tetrahydro-3′H-spiro[piperidine-4,2′-pyrrolo[2,1-b][1,3]oxazol]-3′-one], the EC50 is under 25 nM.

Regarding `CCc1cc(C(=O)N2CCC3(CC2)O[C@@H]2CC[C@@H](c4cc(F)cc(F)c4)N2C3=O)no1` [Example 6.62, (5′S,7a′R)-5′-(3,5-difluorophenyl)-1-(5-ethyl-1,2-oxazole-3-carbonyl)tetrahydro-3′H-spiro[piperidine-4,2′-pyrrolo[2,1-b] [1,3]oxazol]-3′-one], the EC50 was determined as 64.8 nM.

For the compound `Cc1ccc(F)c(C(=O)N2CCC3(CC2)O[C@@H]2CC[C@@H](c4ccccc4F)N2C3=O)c1` [Example 1.17, (5′S,7a′R)-1-(2-fluoro-5-methylbenzoyl)-5′-(2-fluorophenyl)tetrahydro-3′H-spiro[piperidine-4,2′-pyrrolo[2,1-b]oxazol]-3′-one], the concentration for a half-maximal effect (EC50) is under 25 nM.

Turning to `O=C1N2[C@@H](CC[C@H]2c2ccccc2F)OC12CN(c1ccnc(Cl)c1)C2` [Example 4.109, (5′S,7a′R)-1-(2-chloropyridin-4-yl)-5′-(2-fluorophenyl)tetrahydro-3′H-spiro[azetidine-3,2′-pyrrolo[2,1-b]oxazol]-3′-one], the EC50 is 37.8 nM.

Consider `COc1cc(N2CCC3(CC2)O[C@@H]2CC[C@@H](c4cc(F)cc(F)c4)N2C3=O)ncc1C#N` [Example 4.43, 6-[(5′S,7a′R)-5′-(3,5-difluorophenyl)-3′-oxotetrahydro-1H,3′H-spiro[piperidine-4,2′-pyrrolo[2,1-b] [1,3]oxazol]-1-yl]-4-methoxypyridine-3-carbonitrile], for which the EC50 is under 25 nM.

For the compound `O=C1N2[C@@H](CC[C@H]2c2ccccc2F)OC12CCN(c1ncc(Br)c3ncnn13)CC2` [Example 4.240, (5′S,7a′R)-1-(8-bromo [1,2,4]triazolo[1,5-c]pyrimidin-5-yl)-5′-(2-fluorophenyl)tetrahydro-3′H-spiro[piperidine-4,2′-pyrrolo[2,1-b] [1,3]oxazol]-3′-one], the EC50 is under 25 nM.

With `NC(=O)c1ccc(N2CCC3(CC2)O[C@@H]2CC[C@@H](c4ccccc4)N2C3=O)n2nccc12` [Example 4.155, 7-[(5′S,7a′R)-3′-oxo-5′-phenyltetrahydro-1H,3′H-spiro[piperidine-4,2′-pyrrolo[2,1-b] [1,3]oxazol]-1-yl]pyrazolo[1,5-a] pyridine-4-carboxamide], the EC50 was under 25 nM.

These data come from patent US12180226B2, “Spirotricycle RIPK1 inhibitors and methods of uses thereof” (Merck Sharp & Dohme LLC, priority 2021, dated 2024).
